# Data from PubChem BioAssay (NCI).
#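 Exposure lasted 48 hours, with cells grown in 96-well plates and compounds tested at five concentrations. TGI is the concentration that stops growth completely.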
# Key:
# Test in all cases: inhibition of tumour cell growth, NCI panel, 48 h
# UACC-62 melanoma = test system: UACC-62 melanoma
# COLO 205 colon = test system: COLO 205 colon
# CCRF-CEM leukemia = test system: CCRF-CEM leukemia
# SF-539 CNS = test system: SF-539 CNS
# SK-MEL-5 melanoma = test system: SK-MEL-5 melanoma
# IGROV1 ovarian = test system: IGROV1 ovarian
# HOP-92 NSCLC = test system: HOP-92 NSCLC
# EKVX NSCLC = test system: EKVX NSCLC
# KM12 colon = test system: KM12 colon
# MCF7 breast = test system: MCF7 breast
# UO-31 renal = test system: UO-31 renal
# SN12C renal = test system: SN12C renal
# HS 578T breast = test system: HS 578T breast
# K-562 leukemia = test system: K-562 leukemia
# RPMI-8226 leukemia = test system: RPMI-8226 leukemia
# MDA-N = test system: MDA-N
# UACC-257 melanoma = test system: UACC-257 melanoma
# TK-10 renal = test system: TK-10 renal
# CAKI-1 renal = test system: CAKI-1 renal
# NCI-H23 lung = test system: NCI-H23 lung
# MALME-3M melanoma = test system: MALME-3M melanoma
# SK-MEL-28 melanoma = test system: SK-MEL-28 melanoma
# OVCAR-4 ovarian = test system: OVCAR-4 ovarian
# MOLT-4 leukemia = test system: MOLT-4 leukemia
# HCT-116 colon = test system: HCT-116 colon
# MDA-MB-231 breast = test system: MDA-MB-231 breast
# SR leukemia = test system: SR leukemia
# SNB-75 CNS = test system: SNB-75 CNS
# SW-620 colon = test system: SW-620 colon
# U251 CNS = test system: U251 CNS
# BT-549 breast = test system: BT-549 breast
# NCI/ADR-RES ovarian = test system: NCI/ADR-RES ovarian
# SF-268 CNS = test system: SF-268 CNS
# A498 renal = test system: A498 renal
# T-47D breast = test system: T-47D breast
# HL-60(TB) leukemia = test system: HL-60(TB) leukemia
# NCI-H226 lung = test system: NCI-H226 lung
# DU-145 prostate = test system: DU-145 prostate
# OVCAR-3 ovarian = test system: OVCAR-3 ovarian
# SK-OV-3 ovarian = test system: SK-OV-3 ovarian
# 786-0 renal = test system: 786-0 renal
# SK-MEL-2 melanoma = test system: SK-MEL-2 melanoma
# M14 melanoma = test system: M14 melanoma
# RXF 393 renal = test system: RXF 393 renal
# HCT-15 colon = test system: HCT-15 colon
# SF-295 CNS = test system: SF-295 CNS
# HCC-2998 colon = test system: HCC-2998 colon
# NCI-H522 lung = test system: NCI-H522 lung
# SNB-19 CNS = test system: SNB-19 CNS
# HOP-62 NSCLC = test system: HOP-62 NSCLC
# A549 NSCLC = test system: A549 NSCLC
# OVCAR-5 ovarian = test system: OVCAR-5 ovarian
# ACHN renal = test system: ACHN renal
# MDA-MB-435 = test system: MDA-MB-435
# PC-3 prostate = test system: PC-3 prostate
# NCI-H460 lung = test system: NCI-H460 lung
# LOX IMVI melanoma = test system: LOX IMVI melanoma
# HT29 colon = test system: HT29 colon
# OVCAR-8 ovarian = test system: OVCAR-8 ovarian
compound,measurement,setting,value
COC(O)C12OC3CO[Si](C(C)C)(C(C)C)O[Si](C(C)C)(C(C)C)OC3C1Oc1nc(=O)ccn12 (stereo not drawn),TGI,UACC-62 melanoma,23.4 µM
same,TGI,COLO 205 colon,27.3 µM
same,TGI,CCRF-CEM leukemia,18.5 µM
same,TGI,SF-539 CNS,29.3 µM
same,TGI,SK-MEL-5 melanoma,21.1 µM
same,TGI,IGROV1 ovarian,25.6 µM
same,TGI,HOP-92 NSCLC,22 µM
same,TGI,EKVX NSCLC,28.7 µM
same,TGI,KM12 colon,19 µM
same,TGI,MCF7 breast,24.8 µM
same,TGI,UO-31 renal,29.3 µM
same,TGI,SN12C renal,27.8 µM
same,TGI,HS 578T breast,19.5 µM
same,TGI,K-562 leukemia,64.9 µM
same,TGI,RPMI-8226 leukemia,3.51 µM
same,TGI,MDA-N,26.7 µM
same,TGI,UACC-257 melanoma,24.3 µM
same,TGI,TK-10 renal,28.7 µM
same,TGI,CAKI-1 renal,33.7 µM
same,TGI,NCI-H23 lung,28.4 µM
same,TGI,MALME-3M melanoma,26.9 µM
same,TGI,SK-MEL-28 melanoma,> 100 µM
same,TGI,OVCAR-4 ovarian,28 µM
same,TGI,MOLT-4 leukemia,5.78 µM
same,TGI,HCT-116 colon,21.8 µM
same,TGI,MDA-MB-231 breast,34 µM
same,TGI,SR leukemia,6.98 µM
same,TGI,SNB-75 CNS,41.3 µM
same,TGI,SW-620 colon,> 52.7 µM
same,TGI,U251 CNS,> 48.3 µM
same,TGI,BT-549 breast,29.3 µM
same,TGI,NCI/ADR-RES ovarian,50.6 µM
same,TGI,SF-268 CNS,26.4 µM
same,TGI,A498 renal,32.9 µM
same,TGI,T-47D breast,24.1 µM
same,TGI,HL-60(TB) leukemia,13.2 µM
same,TGI,NCI-H226 lung,33.9 µM
same,TGI,DU-145 prostate,30.6 µM
same,TGI,OVCAR-3 ovarian,23.5 µM
same,TGI,SK-OV-3 ovarian,31.6 µM
same,TGI,786-0 renal,31.1 µM
same,TGI,SK-MEL-2 melanoma,25.1 µM
same,TGI,M14 melanoma,25.3 µM
same,TGI,RXF 393 renal,24.6 µM
same,TGI,HCT-15 colon,30.9 µM
same,TGI,SF-295 CNS,24.8 µM
same,TGI,HCC-2998 colon,14.9 µM
same,TGI,NCI-H522 lung,18.3 µM
same,TGI,SNB-19 CNS,28.9 µM
same,TGI,HOP-62 NSCLC,26.9 µM
same,TGI,A549 NSCLC,26.1 µM
same,TGI,OVCAR-5 ovarian,29.1 µM
same,TGI,ACHN renal,27.5 µM
same,TGI,MDA-MB-435,26.7 µM
same,TGI,PC-3 prostate,17 µM
same,TGI,NCI-H460 lung,23.4 µM
same,TGI,LOX IMVI melanoma,27.9 µM
same,TGI,HT29 colon,20.5 µM
same,TGI,OVCAR-8 ovarian,24.6 µM
O=c1[nH]c2cc(C(F)(F)F)ccc2nc1CBr,TGI,UACC-62 melanoma,23.2 µM
same,TGI,COLO 205 colon,35.8 µM
same,TGI,CCRF-CEM leukemia,5.73 µM
same,TGI,SF-539 CNS,16.1 µM
same,TGI,SK-MEL-5 melanoma,28.5 µM
same,TGI,IGROV1 ovarian,24.5 µM
same,TGI,HOP-92 NSCLC,11.1 µM
same,TGI,EKVX NSCLC,29.5 µM
same,TGI,KM12 colon,31.4 µM
same,TGI,MCF7 breast,21.7 µM
same,TGI,UO-31 renal,18.1 µM
same,TGI,SN12C renal,34.8 µM
same,TGI,HS 578T breast,56.6 µM
same,TGI,K-562 leukemia,> 100 µM
same,TGI,RPMI-8226 leukemia,69.8 µM
same,TGI,MDA-N,26.9 µM
same,TGI,UACC-257 melanoma,28.7 µM
same,TGI,TK-10 renal,27.9 µM
same,TGI,CAKI-1 renal,17.5 µM
same,TGI,NCI-H23 lung,38.6 µM
same,TGI,MALME-3M melanoma,27.4 µM
same,TGI,SK-MEL-28 melanoma,30 µM
same,TGI,OVCAR-4 ovarian,32.3 µM
same,TGI,MOLT-4 leukemia,> 100 µM
same,TGI,HCT-116 colon,28.7 µM
same,TGI,MDA-MB-231 breast,35.6 µM
same,TGI,SR leukemia,> 100 µM
same,TGI,SNB-75 CNS,30.7 µM
same,TGI,SW-620 colon,37.6 µM
same,TGI,U251 CNS,24.8 µM
same,TGI,BT-549 breast,27.5 µM
same,TGI,NCI/ADR-RES ovarian,50.4 µM
same,TGI,SF-268 CNS,59.1 µM
same,TGI,A498 renal,33 µM
same,TGI,T-47D breast,33.3 µM
same,TGI,HL-60(TB) leukemia,14.3 µM
same,TGI,NCI-H226 lung,26.7 µM
same,TGI,DU-145 prostate,23.1 µM
same,TGI,OVCAR-3 ovarian,23.7 µM
same,TGI,SK-OV-3 ovarian,35.2 µM
same,TGI,786-0 renal,19.2 µM
same,TGI,SK-MEL-2 melanoma,26.6 µM
same,TGI,M14 melanoma,21.1 µM
same,TGI,RXF 393 renal,25.2 µM
same,TGI,HCT-15 colon,33.3 µM
same,TGI,SF-295 CNS,28.9 µM
same,TGI,HCC-2998 colon,33.2 µM
same,TGI,NCI-H522 lung,1.52 µM
same,TGI,SNB-19 CNS,32.7 µM
same,TGI,HOP-62 NSCLC,28.7 µM
same,TGI,A549 NSCLC,27.4 µM
same,TGI,OVCAR-5 ovarian,29.3 µM
same,TGI,ACHN renal,20.2 µM
same,TGI,MDA-MB-435,26.2 µM
same,TGI,PC-3 prostate,26.3 µM
same,TGI,NCI-H460 lung,32.3 µM
same,TGI,LOX IMVI melanoma,12.8 µM
same,TGI,HT29 colon,38.6 µM
same,TGI,OVCAR-8 ovarian,39.6 µM
